Test results as given in PMC6130518, “Investigation of the effective components of the flowers of Trollius chinensis from the perspectives of intestinal bacterial transformation and intestinal absorption” (Pharmaceutical Biology, 2017).
“Also recorded” adds a separate entry of the source. Where two headings read alike, the source gives them in different places.

How the values were obtained:
[1] = previous study, cited from earlier work
[2] = system: activated intestinal bacteria; assay: Intestinal bacterial transformation of AEOF; format: in vitro ADME, human; settings: for After transformed by intestinal bacteria / Before transformed by intestinal bacteria: content in the extract; for transformation by intestinal bacteria (in words): in AEOF 15.0, 30.0, 60.0 mg/mL, up to 72 h, single person derived- or multiple people-derived intestinal bacteria; for time in which completely transformed by intestinal bacteria: in AEOF, isoquercetin to quercetin, trollioside to proglobeflowery acid
Experimental: Each 3 g of fresh feces from 3 healthy men and 3 healthy women of 23–25 years old was suspended in 200 mL of general anaerobic medium (GAM, including L-cystine hydrochloride, soluble starch, pepsin, tryptone, peptone, soy peptone, serum powder, yeast extract, beef extract, and beef liver extract powder purchased from Beijing Aoboxing Biotechnology Co., Ltd, Beijing, China) broth prepared as per a literature (Yang & Xu [2011]), respectively, and cultured in an anaerobic incubator (Shanghai Cimomedical Appliance Co., Ltd., Shanghai, China) at 37 °C for 24 h (Tsuchihashi et al. [2009]). […] Each 100 μL of the activated intestinal bacteria from the 6 volunteers were added into 11.4 mL of GAM, mixed adequately, and incubated in the same conditions as previously to obtain the mixture of activated intestinal bacteria. About 0.4513, 0.9026, and 1.8052 g of AEOF were dissolved in 30 mL of GAM on a super clean bench (Beijing Great Wall Air Purification Co. Ltd., Beijing, China), respectively, to generate the experimental groups. Then, the triplicate GAM containing AEOF was divided into 24 screw-cap test tubes, and each screw-cap test tube had 3 mL of the GAM and 100 μL of the activated intestinal bacteria and the mixture of activated intestinal bacteria, respectively. They were incubated under the same condition, and the test tubes of each concentration in triplicate were removed from the anaerobic incubator at 0, 2, 4, 6, 12, 24, 48, and 72 h. About 100 μL of the bacterial suspension was replaced with GAM to obtain the control group. The GAM absent of the AEOF was used as the blank group. […] About 300 μL of the supernatant was collected, filtered through a 0.45 μm membrane filter, and stored at −20 °C before HPLC analysis.
The HPLC analysis was performed using a Waters 1500 series (Waters Business Operations, Milford, MA) equipped with a 1525 binary HPLC pump, an on-line degasser, a manual injector and a 2489 UV/Visible detector. […] The temperature was set at 35 °C and the UV detecting wavelengths were 254 and 365 nm. The mobile phase consisted of acetonitrile (HPLC grade, Fisher Co., Pittsburgh, PA) (A) and 1.0% acetic acid (Beijing Chemical Works, Beijing, China) in purified water (v/v) (B), and the gradient elution program was as follows: 5–10% A (0–5 min), 10–20% A (5–10 min), 20–25% A (10–22 min), 25–40% A (22–35 min), 40–50% A (35–40 min), and 50–5% A (40–42 min) at a flow rate of 1.0 mL/min. The volume injected was 5 μL.

[3] = Absorption experiment with everted gut sacs; settings: Sprague-Dawley, rat
[4] = system: everted gut sacs (jejunum); assay: Absorption experiment with everted gut sacs; settings: for transport percentage: Everted gut sacs, AP→BL; for After transported with everted gut sacs: intestinal bacterial transformed AEOF
[5] = Transport experiment with Caco-2 cell monolayers; settings: human; for Papp at 180 min, 10 mg/mL / Papp at 180 min, 20 mg/mL / Papp at 180 min, 30 mg/mL: Caco-2, Papp, Caco-2 cell monolayers; for Papp at 180 min, 10 mg/mL: extract 10 mg/mL; for Papp at 180 min, 20 mg/mL: extract 20 mg/mL; for Papp at 180 min, 30 mg/mL: extract 30 mg/mL
Experimental: (§1) The Caco-2 cells were cultured in the culture medium consisting of Dulbecco’s Modified Eagle Medium (DMEM, Gibco Inc., Grand Island, CA)-fetal bovine serum (FBS, Gibco Inc., Grand Island, CA)-nonessential amino acids (NEAA, Corning Costar, Cambridge, MA)-‘penicillin-streptomycin’ (Corning Costar, Cambridge, MA) (100:10:1:1, v/v/v/v) in 25 cm^2 flasks, which were incubated in 5% CO2 and constant temperature (37 °C) and humidity in the incubator. The culture medium was replaced every 2 or 3 days, and the cells were split 1:2 or 1:3 to conduct passage when they reached 80% confluence.
(§2) About 1.5 mL of the culture medium was added into the basal (BL) side of each well of the 12-well Transwell plates (insert diameter 12 mm, pore size 3.0 μm, membrane growth area 1.12 cm^2, Corning Costar, Cambridge, MA), and 0.5 mL of the Caco-2 cell suspension at the density of 2.0 × 10^5 cells/mL was seeded into the apical (AP) side of each insert. The cells were incubated in 5% CO2 and constant temperature (37 °C) and humidity in the incubator. The culture medium in both AP and BL sides was replaced every other day in the first week, then that in AP side was replaced every day and that in BL side was replaced every other day. The cells would differentiate and form a confluent monolayer. The integrity and viability of the cell monolayers were evaluated by measuring transepithelial electrical resistance (TEER) values in the culture medium at 37 °C using a Millicell®-ERS system (Millipore Corp., Bedford, MA), and only the inserts with the TEER above 600 Ω/cm^2 on day 21 were selected to perform the transport experiment.
(§3) About 200 μL of the solution in the receiving chambers was collected at 30, 60, 90, 120, 150, and 180 min, respectively, and then the same volume of HBSS was added. All samples were stored at −20 °C and filtered through a 0.45 μm membrane filter for HPLC analysis.
(§4) The HPLC conditions used for the analysis of the intestinal bacterial transformed AEOF before and after transport experiment was the same as above.
(§5) The transport percentage (%) was calculated using the formula transport percentage (%) = dQ/(C0 × V) × 100, wherein, V (mL) represented the volume of the donor compartment.

Caco-2 cell monolayers = assay: Transport experiment with Caco-2 cell monolayers; settings: for transport percentage: Caco-2 cell monolayers; for After transported with Caco-2 cell monolayers: intestinal bacterial transformed AEOF
Experimental: as §1, §2, §3, §4, §5

[6] = first of three lines per compound (lowest extract concentration)
[7] = first of three lines per compound (lowest extract concentration; AEOF 15, 30, 60 mg/mL)
[8] = second of three lines per compound (middle extract concentration, not given)
[9] = third of three lines per compound (highest extract concentration, not given)
[10] = first of three lines per compound (lowest concentration; 10, 20, 30 mg/mL)
[11] = second of three lines per compound (middle concentration, not given)
[12] = third of three lines per compound (highest concentration, not given)

In the case of `O=c1cc(-c2ccc(O)c(O)c2)oc2c([C@@H]3O[C@H](CO)[C@@H](O)[C@H](O)[C@H]3O)c(O)cc(O)c12` [orientin], the absorption mechanism ([1]; ref Liu et al. [2015]) is given as “transporter mediated efflux in addition to passive diffusion”, the “After transformed by intestinal bacteria” value [2, 6] is given as 11.83 µg/mL and the “Before transformed by intestinal bacteria” value (“Before transformed” below) [2, 7] is given as 10.27 µg/mL. The “After transformed by intestinal bacteria” value [2, 8] was 20.38 µg/mL, the “Before transformed” value [2, 8] was 20.33 µg/mL and the “After transformed by intestinal bacteria” value [2, 9] was 43.42 µg/mL. The “Before transformed” value [2, 9] was 43.87 µg/mL, the “transformation by intestinal bacteria (in words)” value (“transformation” below) [2] was “not transformed; also recorded: not changed” and the Papp at 180 min, 10 mg/mL [3] was 21.9 ± 2.4 ×10⁻⁶ cm/s. For the same molecule, the Papp at 180 min, 20 mg/mL [3] was 18.5 ± 0.1 ×10⁻⁶ cm/s, the Papp at 180 min, 30 mg/mL [3] was 34 ± 3.4 ×10⁻⁶ cm/s and the transport percentage ([4]; extract 10 mg/mL) was 4.67%. For the same molecule, the transport percentage ([4]; extract 20 mg/mL) was 3.50%, the transport percentage ([4]; extract 30 mg/mL) was 6.75% and the “After transported with everted gut sacs” value [4, 10] was 0.32 µg/mL. For the same molecule, the “After transported with everted gut sacs” value [4, 11] was 0.49 µg/mL, the “After transported with everted gut sacs” value [4, 12] was 1.04 µg/mL and the Papp at 180 min, 10 mg/mL ([5]; AP→BL) was 25.3 ± 0.3 ×10⁻⁶ cm/s. The Papp at 180 min, 10 mg/mL ([5]; BL→AP) was 19.2 ± 1.4 ×10⁻⁶ cm/s, the Papp at 180 min, 20 mg/mL ([5]; AP→BL) was 13.5 ± 0.2 ×10⁻⁶ cm/s and the Papp at 180 min, 20 mg/mL ([5]; BL→AP) was 11.8 ± 0.2 ×10⁻⁶ cm/s. It also gave a Papp at 180 min, 30 mg/mL ([5]; AP→BL) of 19.5 ± 1.4 ×10⁻⁶ cm/s, a Papp at 180 min, 30 mg/mL ([5]; BL→AP) of 16.3 ± 0.6 ×10⁻⁶ cm/s and a transport percentage (Caco-2 cell monolayers; extract 10 mg/mL, AP→BL) of 30.53%. The transport percentage (Caco-2 cell monolayers; extract 10 mg/mL, BL→AP) was 7.73%, the transport percentage (Caco-2 cell monolayers; extract 20 mg/mL, AP→BL) was 16.39% and the transport percentage (Caco-2 cell monolayers; extract 20 mg/mL, BL→AP) was 4.76%. For the same molecule, the transport percentage (Caco-2 cell monolayers; extract 30 mg/mL, AP→BL) was 23.54%, the transport percentage (Caco-2 cell monolayers; extract 30 mg/mL, BL→AP) was 6.56% and the “After transported with Caco-2 cell monolayers” value (Caco-2 cell monolayers; [10]) was 0.33 µg/mL. The “After transported with Caco-2 cell monolayers” value (Caco-2 cell monolayers; [11]) was 0.35 µg/mL and the “After transported with Caco-2 cell monolayers” value (Caco-2 cell monolayers; [12]) was 0.82 µg/mL.

For `COc1cc(C(=O)O)cc(CC=C(C)C)c1O` [proglobeflowery acid], the absorption mechanism ([1]; ref Liu et al. [2014], Wu et al. [2014]) is listed as “mainly through passive diffusion”, the “After transformed by intestinal bacteria” value [2, 6] is listed as 32.40 µg/mL and the “Before transformed” value [2, 7] is listed as 2.55 µg/mL. The “After transformed by intestinal bacteria” value [2, 8] was 67.09 µg/mL, the “Before transformed” value [2, 8] was 4.78 µg/mL and the “After transformed by intestinal bacteria” value [2, 9] was 134.85 µg/mL. The “Before transformed” value [2, 9] was 6.67 µg/mL, the “transformation” value [2] was “not transformed; also recorded: not changed” and the Papp at 180 min, 10 mg/mL [3] was 450 ± 11 ×10⁻⁶ cm/s. For the same molecule, the Papp at 180 min, 20 mg/mL [3] was 534 ± 14 ×10⁻⁶ cm/s, the Papp at 180 min, 30 mg/mL [3] was 586 ± 8 ×10⁻⁶ cm/s and the transport percentage ([4]; extract 10 mg/mL) was 9.60%. The transport percentage ([4]; extract 20 mg/mL) was 10.58%, the transport percentage ([4]; extract 30 mg/mL) was 11.61% and the “After transported with everted gut sacs” value [4, 10] was 1.95 µg/mL. For the same molecule, the “After transported with everted gut sacs” value [4, 11] was 4.95 µg/mL, the “After transported with everted gut sacs” value [4, 12] was 7.74 µg/mL and the Papp at 180 min, 10 mg/mL ([5]; AP→BL) was 105 ± 4 ×10⁻⁶ cm/s. The Papp at 180 min, 10 mg/mL ([5]; BL→AP) was 223 ± 16 ×10⁻⁶ cm/s, the Papp at 180 min, 20 mg/mL ([5]; AP→BL) was 123 ± 26 ×10⁻⁶ cm/s and the Papp at 180 min, 20 mg/mL ([5]; BL→AP) was 142 ± 5 ×10⁻⁶ cm/s. For the same molecule, the Papp at 180 min, 30 mg/mL ([5]; AP→BL) was 181 ± 22 ×10⁻⁶ cm/s, the Papp at 180 min, 30 mg/mL ([5]; BL→AP) was 105 ± 4 ×10⁻⁶ cm/s and the transport percentage (Caco-2 cell monolayers; extract 10 mg/mL, AP→BL) was 127.39%. For the same molecule, the transport percentage (Caco-2 cell monolayers; extract 10 mg/mL, BL→AP) was 89.93%, the transport percentage (Caco-2 cell monolayers; extract 20 mg/mL, AP→BL) was 148.57% and the transport percentage (Caco-2 cell monolayers; extract 20 mg/mL, BL→AP) was 57.32%. The transport percentage (Caco-2 cell monolayers; extract 30 mg/mL, AP→BL) was 219.09%, the transport percentage (Caco-2 cell monolayers; extract 30 mg/mL, BL→AP) was 42.47% and the “After transported with Caco-2 cell monolayers” value (Caco-2 cell monolayers; [10]) was 11.11 µg/mL. For the same molecule, the “After transported with Caco-2 cell monolayers” value (Caco-2 cell monolayers; [11]) was 17.18 µg/mL and the “After transported with Caco-2 cell monolayers” value (Caco-2 cell monolayers; [12]) was 23.46 µg/mL.

For `O=c1c(O[C@@H]2O[C@H](CO)[C@@H](O)[C@H](O)[C@H]2O)c(-c2ccc(O)c(O)c2)oc2cc(O)cc(O)c12` [isoquercetin], the “After transformed by intestinal bacteria” value [2, 6] was 0.00 µg/mL, the “Before transformed” value [2, 7] was 0.37 µg/mL and the “After transformed by intestinal bacteria” value [2, 8] was 0.00 µg/mL. The “Before transformed” value [2, 8] was 0.56 µg/mL, the “After transformed by intestinal bacteria” value [2, 9] was 0.00 µg/mL and the “Before transformed” value [2, 9] was 1.38 µg/mL. For the same molecule, the “transformation” value [2] was “completely transformed”, the “time in which completely transformed by intestinal bacteria” value [2] was no more than 24 h and the “After transported with everted gut sacs” value [4, 10] was 0.00 µg/mL. For the same molecule, the “After transported with everted gut sacs” value [4, 11] was 0.00 µg/mL, the “After transported with everted gut sacs” value [4, 12] was 0.00 µg/mL and the “After transported with Caco-2 cell monolayers” value (Caco-2 cell monolayers; [10]) was 0.00 µg/mL. The “After transported with Caco-2 cell monolayers” value (Caco-2 cell monolayers; [11]) was 0.00 µg/mL and the “After transported with Caco-2 cell monolayers” value (Caco-2 cell monolayers; [12]) was 0.00 µg/mL.

For `COc1cc(C(=O)O)cc(CC=C(C)C)c1OC1OC(CO)C(O)C(O)C1O` (stereo not shown) [trollioside], the “After transformed by intestinal bacteria” value [2, 6] was 0.00 µg/mL, the “Before transformed” value [2, 7] was 5.62 µg/mL and the “After transformed by intestinal bacteria” value [2, 8] was 0.00 µg/mL. For the same molecule, the “Before transformed” value [2, 8] was 12.76 µg/mL, the “After transformed by intestinal bacteria” value [2, 9] was 0.00 µg/mL and the “Before transformed” value [2, 9] was 26.84 µg/mL. For the same molecule, the “transformation” value [2] was “completely transformed”, the “time in which completely transformed by intestinal bacteria” value [2] was no more than 24 h and the “After transported with everted gut sacs” value [4, 10] was 0.00 µg/mL. The “After transported with everted gut sacs” value [4, 11] was 0.00 µg/mL, the “After transported with everted gut sacs” value [4, 12] was 0.00 µg/mL and the “After transported with Caco-2 cell monolayers” value (Caco-2 cell monolayers; [10]) was 0.00 µg/mL. For the same molecule, the “After transported with Caco-2 cell monolayers” value (Caco-2 cell monolayers; [11]) was 0.00 µg/mL and the “After transported with Caco-2 cell monolayers” value (Caco-2 cell monolayers; [12]) was 0.00 µg/mL.

Molecule `CC(C)NCC(O)COc1cccc2ccccc12` (stereo not shown) [propranolol, reference compound] has a Papp at 180 min ([5]; Caco-2, apparent permeability coefficient (Papp), reference compounds, validation of Caco-2 monolayers) of 41.2 ×10⁻⁶ cm/s.

For `O=c1c(O)c(-c2ccc(O)c(O)c2)oc2cc(O)cc(O)c12` [quercetin], the “After transformed by intestinal bacteria” value [2, 6] was 2.12 µg/mL, the “Before transformed” value [2, 7] was 1.56 µg/mL and the “After transformed by intestinal bacteria” value [2, 8] was 4.02 µg/mL. For the same molecule, the “Before transformed” value [2, 8] was 3.25 µg/mL, the “After transformed by intestinal bacteria” value [2, 9] was 8.45 µg/mL and the “Before transformed” value [2, 9] was 7.38 µg/mL. For the same molecule, the “transformation” value [2] was “not transformed”, the “After transported with everted gut sacs” value [4, 10] was 0.00 µg/mL and the “After transported with everted gut sacs” value [4, 11] was 0.00 µg/mL. For the same molecule, the “After transported with everted gut sacs” value [4, 12] was 0.00 µg/mL, the “After transported with Caco-2 cell monolayers” value (Caco-2 cell monolayers; [10]) was 0.00 µg/mL and the “After transported with Caco-2 cell monolayers” value (Caco-2 cell monolayers; [11]) was 0.00 µg/mL. The “After transported with Caco-2 cell monolayers” value (Caco-2 cell monolayers; [12]) was 0.00 µg/mL.
